The record followed here is PubChem BioAssay AID248 (DTP/NCI, 2004).

The experiment relates to L1210 leukemia ip in BDF1 mice, survival T/C. Briefly: NCI In Vivo Anticancer Drug Screen. Data for tumor model L1210 Leukemia (intraperitoneal) in B6D2F1 (BDF1) mice. To be noted: endpoint: mean survival time, higher = longer survival. In outline:
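Tumor was transplanted into mice, which were then dosed with test compound or vehicle alone. Survival was recorded for each group, and the treated figure was expressed relative to the control figure.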

Setting [1] is: dose: 100.0 mg/kg/injection, schedule: Q04DX003 (ip), vehicle: saline with Tween-80.
Setting [2] is: dose: 200.0 mg/kg/injection, schedule: Q04DX003 (ip), vehicle: saline with Tween-80.
The mark [3] stands for this setting: dose: 400.0 mg/kg/injection, schedule: Q04DX003 (ip), vehicle: saline with Tween-80.
The mark [4] stands for this setting: dose: 100.0 mg/kg/injection, schedule: Q01DX009 (ip), vehicle: saline.
The mark [5] stands for this setting: dose: 200.0 mg/kg/injection, schedule: Q01DX009 (ip), vehicle: saline.
The mark [6] stands for this setting: dose: 400.0 mg/kg/injection, schedule: Q01DX009 (ip), vehicle: saline.
The mark [7] stands for this setting: dose: 100.0 mg/kg/injection, schedule: Q01DX009 (ip), vehicle: Klucel (hydroxypropylcellulose) (HPC).
[8] abbreviates: dose: 100.0 mg/kg/injection, schedule: Q01DX001 (ip), vehicle: saline.
The mark [9] stands for this setting: dose: 200.0 mg/kg/injection, schedule: Q01DX001 (ip), vehicle: saline.
[10] abbreviates: dose: 400.0 mg/kg/injection, schedule: Q01DX001 (ip), vehicle: saline.
Setting [11] is: dose: 100.0 mg/kg/injection, schedule: Q01DX009 (ip), vehicle: saline with Tween-80.
The mark [12] stands for this setting: dose: 200.0 mg/kg/injection, schedule: Q01DX009 (ip), vehicle: saline with Tween-80.

Molecules are shown by their SMILES. Several values for one entry are separate records, joined by “and”; a condition that tells them apart may be missing. Equal values may be shown once. Toxic doses and inconclusive results are not listed.

Take `O=C(Nc1ccc(C2=NCCN2)cc1)c1ccc(C(=O)Nc2ccc(C3=NCCN3)cc2)nc1`: the T/C runs as follows: (dose: 1.0 mg/kg/injection, schedule: Q01DX Z (ip), vehicle: saline) 108 % of control; (dose: 2.0 mg/kg/injection, schedule: Q01DX Z (ip), vehicle: saline) 119 % of control; (dose: 15.0 mg/kg/injection, schedule: Q01DX Z (ip), vehicle: carboxymethylcellulose (CMC)) 228 % of control; (dose: 16.0 mg/kg/injection, schedule: Q01DX Z (ip), vehicle: saline) 221 % of control; (dose: 30.0 mg/kg/injection, schedule: Q01DX Z (oral), vehicle: saline) 104 % of control; (dose: 60.0 mg/kg/injection, schedule: Q01DX Z (ip), vehicle: carboxymethylcellulose (CMC)) 117 % of control. The T/C reads like this: (dose: 60.0 mg/kg/injection, schedule: Q01DX Z (oral), vehicle: saline) 98 % of control; (dose: 120.0 mg/kg/injection, schedule: Q01DX Z (oral), vehicle: saline) 106 % of control; (dose: 240.0 mg/kg/injection, schedule: Q01DX Z (oral), vehicle: saline) 97 % of control; (dose: 480.0 mg/kg/injection, schedule: Q01DX Z (oral), vehicle: saline) 98 % of control; (dose: 960.0 mg/kg/injection, schedule: Q01DX Z (oral), vehicle: saline) 97 % of control.

For the compound `CC/C(C)=N\NC(N)=S`, the T/C (dose: 6.25 mg/kg/injection, schedule: Q01DX009 (ip), vehicle: Klucel (hydroxypropylcellulose) (HPC)) was 91 % of control; the T/C (dose: 12.5 mg/kg/injection, schedule: Q01DX009 (ip), vehicle: Klucel (hydroxypropylcellulose) (HPC)) was 92 % of control; the T/C (dose: 12.5 mg/kg/injection, schedule: Q04DX002 (ip), vehicle: Klucel (hydroxypropylcellulose) (HPC)) is 92 % of control; the T/C (dose: 25.0 mg/kg/injection, schedule: Q04DX002 (ip), vehicle: Klucel (hydroxypropylcellulose) (HPC)) is 98 % of control.

Turning to `O=C1OC(=O)C2CC3OC3CC12` (centres undefined), the T/C is 106 % of control (dose: 50.0 mg/kg/injection, schedule: Q01DX001 (ip), vehicle: saline sonified); 96 % of control (dose: 100.0 mg/kg/injection, schedule: Q01DX001 (ip), vehicle: saline sonified); 91 % of control under setting [1]; 93 % of control (dose: 200.0 mg/kg/injection, schedule: Q01DX001 (ip), vehicle: saline sonified); 94 % of control under setting [2]; 108 % of control under setting [3].

Consider `CC(=O)c1cccc(OCC(O)CN(C(C)C)C(C)C)c1` (centres undefined), for which the T/C was 98 % of control under setting [4] and 98 % of control under setting [5].

Consider `CC1(C)CCC2=C(O1)c1ccccc1C(=O)C2=O`, for which the T/C runs as follows: (dose: 25.0 mg/kg/injection, schedule: Q01DX001 (ip), vehicle: Klucel (hydroxypropylcellulose) (HPC)) 102 % of control; (dose: 50.0 mg/kg/injection, schedule: Q01DX001 (ip), vehicle: Klucel (hydroxypropylcellulose) (HPC)) 98 % of control; (dose: 100.0 mg/kg/injection, schedule: Q01DX001 (ip), vehicle: Klucel (hydroxypropylcellulose) (HPC)) 94 % of control and 102 % of control.

Turning to `CCCCCCCCCCCCN1CCCN(CCCCCCCCCCCC)CC1`, the T/C runs as follows: (dose: 100.0 mg/kg/injection, schedule: Q01DX001 (ip), vehicle: saline with Tween-80) 100 % of control; (dose: 100.0 mg/kg/injection, schedule: Q04DX002 (ip), vehicle: saline with Tween-80) 97 % of control and 106 % of control; under setting [1], 94 % of control and 90 % of control; (dose: 200.0 mg/kg/injection, schedule: Q01DX001 (ip), vehicle: saline with Tween-80) 98 % of control; (dose: 200.0 mg/kg/injection, schedule: Q04DX002 (ip), vehicle: saline with Tween-80) 97 % of control and 106 % of control; under setting [2], 103 % of control and 87 % of control. For the same compound, the T/C is 107 % of control (dose: 400.0 mg/kg/injection, schedule: Q01DX001 (ip), vehicle: saline with Tween-80); 101 % of control and 92 % of control (dose: 400.0 mg/kg/injection, schedule: Q04DX002 (ip), vehicle: saline with Tween-80); 90 % of control under setting [3].

Consider `CCN=C(N)C(N)=NCC`, for which the T/C by setting is: under setting [4], 94 % of control; (dose: 100.0 mg/kg/injection, schedule: Q04DX003 (ip), vehicle: saline) 103 % of control; under setting [5], 94 % of control; (dose: 200.0 mg/kg/injection, schedule: Q04DX003 (ip), vehicle: saline) 100 % of control; under setting [6], 89 % of control; (dose: 400.0 mg/kg/injection, schedule: Q04DX003 (ip), vehicle: saline) 97 % of control.

On to `COC(=O)c1[nH]cnc1N`, for which the T/C is, setting by setting: (dose: 50.0 mg/kg/injection, schedule: Q01DX001 (ip), vehicle: carboxymethylcellulose (CMC)) 97 % of control; (dose: 100.0 mg/kg/injection, schedule: Q01DX001 (ip), vehicle: carboxymethylcellulose (CMC)) 105 % of control; (dose: 200.0 mg/kg/injection, schedule: Q01DX001 (ip), vehicle: carboxymethylcellulose (CMC)) 97 % of control; (dose: 400.0 mg/kg/injection, schedule: Q01DX001 (ip), vehicle: carboxymethylcellulose (CMC)) 94 % of control.

Regarding `O=C(Nc1cc(C(F)(F)F)ccc1Cl)C(=O)Nc1cc(C(F)(F)F)ccc1Cl`, the T/C is, setting by setting: (dose: 100.0 mg/kg/injection, schedule: Q01DX009 (ip), vehicle: gum acacia) 88 % of control; (dose: 200.0 mg/kg/injection, schedule: Q01DX009 (ip), vehicle: gum acacia) 93 % of control; (dose: 400.0 mg/kg/injection, schedule: Q01DX009 (ip), vehicle: gum acacia) 93 % of control.

Regarding `ClC1=C(Cl)C(Cl)(C2(Cl)C(Cl)=C(Cl)C(Cl)=C2Cl)C(Cl)=C1Cl`, the T/C under setting [7] is 93 % of control; the T/C (dose: 200.0 mg/kg/injection, schedule: Q01DX009 (ip), vehicle: Klucel (hydroxypropylcellulose) (HPC)) is 102 % of control; the T/C (dose: 400.0 mg/kg/injection, schedule: Q01DX009 (ip), vehicle: Klucel (hydroxypropylcellulose) (HPC)) is 95 % of control.

Take `O=C1OC(=O)C2C1C1c3ccccc3C13c1ccccc1C23` (centres undefined): the T/C is 92 % of control under setting [8]; 110 % of control under setting [4]; 94 % of control under setting [9]; 100 % of control under setting [5]; 97 % of control under setting [10]; 89 % of control under setting [6].

`CN(C(=O)OCc1ccccc1)c1ccc(C(=O)O)cc1`: the T/C runs as follows: under setting [8], 97 % of control; under setting [9], 94 % of control; under setting [10], 97 % of control.

For `O=C1NC(=O)N2CCSC2(Cc2ccccc2)N1` (centres undefined), the T/C by setting is: (dose: 50.0 mg/kg/injection, schedule: Q01DX001 (ip), vehicle: saline) 108 % of control; under setting [8], 96 % of control; under setting [9], 96 % of control; under setting [10], 100 % of control.

On to `c1ccc(C[Si](Cc2ccccc2)Cc2ccccc2)cc1`, for which the T/C was 105 % of control under setting [8]; 88 % of control under setting [4]; 90 % of control under setting [9]; 88 % of control under setting [5]; 104 % of control under setting [10]; 90 % of control under setting [6].

Consider `CC(C)NNC(=O)c1ccc(Cl)cc1`, for which the T/C is, setting by setting: (dose: 25.0 mg/kg/injection, schedule: Q01DX009 (ip), vehicle: Klucel (hydroxypropylcellulose) (HPC)) 92 % of control; (dose: 25.0 mg/kg/injection, schedule: Q04DX003 (ip), vehicle: Klucel (hydroxypropylcellulose) (HPC)) 96 % of control; (dose: 50.0 mg/kg/injection, schedule: Q01DX009 (ip), vehicle: Klucel (hydroxypropylcellulose) (HPC)) 93 % of control; (dose: 50.0 mg/kg/injection, schedule: Q04DX003 (ip), vehicle: Klucel (hydroxypropylcellulose) (HPC)) 89 % of control; under setting [7], 103 % of control; under setting [11], 88 % of control. In addition, the T/C (dose: 100.0 mg/kg/injection, schedule: Q04DX003 (ip), vehicle: Klucel (hydroxypropylcellulose) (HPC)) is 94 % of control; the T/C under setting [12] was 98 % of control; the T/C (dose: 200.0 mg/kg/injection, schedule: Q04DX003 (ip), vehicle: Klucel (hydroxypropylcellulose) (HPC)) was 86 % of control; the T/C (dose: 400.0 mg/kg/injection, schedule: Q01DX009 (ip), vehicle: saline with Tween-80) was 90 % of control; the T/C (dose: 400.0 mg/kg/injection, schedule: Q04DX003 (ip), vehicle: Klucel (hydroxypropylcellulose) (HPC)) is 102 % of control.

Take `COc1cc(C=O)ccc1OCCCOc1ccc(C=O)cc1OC`: the T/C runs as follows: (dose: 50.0 mg/kg/injection, schedule: Q01DX009 (ip), vehicle: saline with Tween-80) 104 % of control; under setting [11], 93 % of control; under setting [12], 101 % of control.
